Laboratory results reported in paper PMC6956804, “Potent antibacterial activity of MSI-1 derived from the magainin 2 peptide against drug-resistant bacteria” (Theranostics, 2020).
Peptide text beside a SMILES is read from it.

Key:
P. aeruginosa ATCC27853 = test: microbe, parasite or virus in culture; assay type: cell-based
Method: (§1) Bacterial strains were purchased from the American Type Culture Collection (ATCC). All clinical strains were isolated from human clinical specimens by the Medical Laboratory Center of Zhongda Hospital (Nanjing, Jiangsu, China). Ndm-1, tem-1, ctx-m-1, shv-1 -carrying bacteria were constructed as previously described. The recombinant bacteria carrying drug-resistant genes were prepared in LB nutrient and induced by IPTG (1 mM) for 4 h before text. Other bacterial strains were respectively prepared in MHB and Columbia Blood Agar Base.
(§2) A standard micro-broth serial dilution assay was used to measure MIC of peptides. MIC was obtained by a microplate reader at 600 nm. MBC was determined as previously described.

E. cloacae S3 (AmpC (+)) = test: microbe, parasite or virus in culture; assay type: cell-based; conditions: E. cloacae S3 (AmpC (+)), clinical strain
Method: as §1, §2

[1] = tested on: P. aeruginosa T8 (ESBLs (+)); test: microbe, parasite or virus in culture; assay type: cell-based; conditions: P. aeruginosa T8 (ESBLs (+)), clinical strain
Method: as §1, §2

[2] = tested on: P. aeruginosa T6 (ESBLs (+)); test: microbe, parasite or virus in culture; assay type: cell-based; conditions: P. aeruginosa T6 (ESBLs (+)), clinical strain
Method: as §1, §2

E. coli A2 (ESBLs (+)) = test: microbe, parasite or virus in culture; assay type: cell-based; conditions: E. coli A2 (ESBLs (+)), clinical strain
Method: as §1, §2

Shigella flexneri = test: microbe, parasite or virus in culture; assay type: cell-based
Method: as §1, §2

E. cloacae S1 (AmpC (+)) = test: microbe, parasite or virus in culture; assay type: cell-based; conditions: E. cloacae S1 (AmpC (+)), clinical strain
Method: as §1, §2

E. coli A5 (ESBLs (+)) = test: microbe, parasite or virus in culture; assay type: cell-based; conditions: E. coli A5 (ESBLs (+)), clinical strain
Method: as §1, §2

S. pneumoniae ATCC 49619 = test: microbe, parasite or virus in culture; assay type: cell-based
Method: as §1, §2

E. coli A9 (ESBLs (+)) = test: microbe, parasite or virus in culture; assay type: cell-based; conditions: E. coli A9 (ESBLs (+)), clinical strain
Method: as §1, §2

E. faecalis = test: microbe, parasite or virus in culture; assay type: cell-based
Method: as §1, §2

S. aureus ATCC25923 = test: microbe, parasite or virus in culture; assay type: cell-based
Method: as §1, §2

S. epidermidis ATCC35984 = test: microbe, parasite or virus in culture; assay type: cell-based
Method: as §1, §2

E. faecium = test: microbe, parasite or virus in culture; assay type: cell-based
Method: as §1, §2

E. coli ATCC25922 = test: microbe, parasite or virus in culture; assay type: cell-based; conditions: micro-broth serial dilution, 600 nm
Method: as §1, §2

[3] = tested on: P. aeruginosa T1 (ESBLs (+)); test: microbe, parasite or virus in culture; assay type: cell-based; conditions: P. aeruginosa T1 (ESBLs (+)), clinical strain
Method: as §1, §2

G- and G+ bacteria = test: Antimicrobial activity, summary over the strains; assay type: cell-based; conditions: both G- and G+ bacteria, summary of Table 1
Method: as §2

MSSA D1 = test: microbe, parasite or virus in culture; assay type: cell-based, Staphylococcus aureus; conditions: MSSA D1, clinical strain
Method: as §1, §2

MRSA M108 = test: microbe, parasite or virus in culture; assay type: cell-based, Staphylococcus aureus; conditions: MRSA M108, clinical strain
Method: as §1, §2

MSSA D4 = test: microbe, parasite or virus in culture; assay type: cell-based, Staphylococcus aureus; conditions: MSSA D4, clinical strain
Method: as §1, §2

MRSA M101 = test: microbe, parasite or virus in culture; assay type: cell-based, Staphylococcus aureus; conditions: MRSA M101, clinical strain
Method: as §1, §2

[4] = tested on: K. peneumoniae B6 (ESBLs (+)); test: organism not typed; assay type: cell-based; conditions: K. peneumoniae B6 (ESBLs (+)), clinical strain
Method: as §1, §2

[5] = tested on: K. peneumoniae B9 (ESBLs (+)); test: organism not typed; assay type: cell-based; conditions: K. peneumoniae B9 (ESBLs (+)), clinical strain
Method: as §1, §2

[6] = tested on: K. peneumoniae B4 (ESBLs (+)); test: organism not typed; assay type: cell-based; conditions: K. peneumoniae B4 (ESBLs (+)), clinical strain
Method: as §1, §2

K. peneumoniae ATCC4352 = test: organism not typed; assay type: cell-based
Method: as §1, §2

MRSE N109 = test: microbe, parasite or virus in culture; assay type: cell-based, Staphylococcus epidermidis; conditions: MRSE N109, clinical strain
Method: as §1, §2

MSSE E8 = test: microbe, parasite or virus in culture; assay type: cell-based, Staphylococcus epidermidis; conditions: MSSE E8, clinical strain
Method: as §1, §2

MRSE N104 = test: microbe, parasite or virus in culture; assay type: cell-based, Staphylococcus epidermidis; conditions: MRSE N104, clinical strain
Method: as §1, §2

MSSE E3 = test: microbe, parasite or virus in culture; assay type: cell-based, Staphylococcus epidermidis; conditions: MSSE E3, clinical strain
Method: as §1, §2

PISP F22 = test: microbe, parasite or virus in culture; assay type: cell-based, Streptococcus pneumoniae; conditions: PISP F22, clinical strain
Method: as §1, §2

PRSP P112 = test: microbe, parasite or virus in culture; assay type: cell-based, Streptococcus pneumoniae; conditions: PRSP P112, clinical strain
Method: as §1, §2

PRSP P105 = test: microbe, parasite or virus in culture; assay type: cell-based, Streptococcus pneumoniae; conditions: PRSP P105, clinical strain
Method: as §1, §2

PISP F34 = test: microbe, parasite or virus in culture; assay type: cell-based, Streptococcus pneumoniae; conditions: PISP F34, clinical strain
Method: as §1, §2

CC[C@H](C)[C@H](NC(=O)[C@@H](N)Cc1c[nH]c2ccccc12)C(=O)N[C@@H](CCCNC(=N)N)C(=O)N[C@@H](CCCCN)C(=O)N[C@@H](Cc1ccccc1)C(=O)N[C@@H](CC(C)C)C(=O)N[C@@H](CCCCN)C(=O)N[C@@H](CCCNC(=N)N)C(=O)N[C@H](C(=O)N[C@@H](CCCCN)C(=O)N[C@@H](CCCCN)C(=O)N[C@@H](Cc1ccccc1)C(=O)NCC(N)=O)C(C)C [MSI-4] (H-WIRKFLKRVKKFG-NH2)
16 µg/mL: MIC (Shigella flexneri) | MIC (E. cloacae S1 (AmpC (+))) | MIC (E. coli A5 (ESBLs (+))) | MIC (S. pneumoniae ATCC 49619) | MIC (S. aureus ATCC25923) | MIC (S. epidermidis ATCC35984) | MIC (E. faecium) | MIC (E. coli ATCC25922) | MIC [3] | MIC (MSSA D4) | MIC [5] | MIC (MSSE E8) | MIC (MSSE E3) | MIC (PISP F34)
32 µg/mL: MIC (P. aeruginosa ATCC27853) | MIC (E. cloacae S3 (AmpC (+))) | MIC [2] | MIC (E. coli A2 (ESBLs (+))) | MIC (E. coli A9 (ESBLs (+))) | MIC (E. faecalis) | MIC (MSSA D1) | MIC (MRSA M101) | MIC [4] | MIC (K. peneumoniae ATCC4352) | MIC (MRSE N109) | MIC (MRSE N104) | MIC (PISP F22) | MIC (PRSP P112)
16 to 64 µg/mL: MIC (range over strains) (G- and G+ bacteria)
64 µg/mL: MIC [1] | MIC (MRSA M108) | MIC [6] | MIC (PRSP P105)

CC[C@H](C)[C@H](NC(=O)CN)C(=O)NCC(=O)N[C@@H](CCCCN)C(=O)N[C@@H](Cc1ccccc1)C(=O)N[C@@H](CC(C)C)C(=O)N[C@@H](CCCCN)C(=O)N[C@@H](CCCCN)C(=O)N[C@@H](C)C(=O)N[C@@H](CCCCN)C(=O)N[C@@H](CCCCN)C(=O)N[C@@H](Cc1ccccc1)C(=O)NCC(=O)N[C@@H](CCCCN)C(=O)N[C@@H](C)C(=O)N[C@@H](Cc1ccccc1)C(=O)N[C@H](C(=O)N[C@@H](CCCCN)C(=O)N[C@H](C(=O)N[C@@H](CC(C)C)C(=O)N[C@@H](CCCCN)C(=O)N[C@@H](CCCCN)C(N)=O)[C@@H](C)CC)C(C)C [MSI-78, pexiganan] (H-GIGKFLKKAKKFGKAFVKILKK-NH2)
32 µg/mL: MIC (Shigella flexneri) | MIC [3] | MIC (MSSA D4) | MIC (MRSA M101) | MIC [5] | MIC (MRSE N104) | MIC (MSSE E3) | MIC (PRSP P112) | MIC (PISP F34)
8 µg/mL: MIC (E. coli A2 (ESBLs (+))) | MIC (E. faecium) | MIC (K. peneumoniae ATCC4352)
16 µg/mL: MIC (P. aeruginosa ATCC27853) | MIC (E. cloacae S3 (AmpC (+))) | MIC [1] | MIC [2] | MIC (E. cloacae S1 (AmpC (+))) | MIC (E. coli A5 (ESBLs (+))) | MIC (S. pneumoniae ATCC 49619) | MIC (E. coli A9 (ESBLs (+))) | MIC (E. faecalis) | MIC (S. aureus ATCC25923) | MIC (S. epidermidis ATCC35984) | MIC (E. coli ATCC25922) | MIC (MSSA D1) | MIC (MRSA M108) | MIC [4] | MIC [6] | MIC (MRSE N109) | MIC (MSSE E8) | MIC (PISP F22) | MIC (PRSP P105)
